Test results published in ChEMBL document CHEMBL3991601, “The target landscape of clinical kinase drugs” (Science, 2017).
Calls of active or inactive are those of the source.

How the values were obtained:
[1] = molecular target: Tyrosine-protein kinase Yes (Homo sapiens, UniProt P07947)
[2] = molecular target: T1, Acyl-CoA dehydrogenase family member 10 (Homo sapiens, UniProt Q6JQN1)
T1 sequence (Q6JQN1 whole entry): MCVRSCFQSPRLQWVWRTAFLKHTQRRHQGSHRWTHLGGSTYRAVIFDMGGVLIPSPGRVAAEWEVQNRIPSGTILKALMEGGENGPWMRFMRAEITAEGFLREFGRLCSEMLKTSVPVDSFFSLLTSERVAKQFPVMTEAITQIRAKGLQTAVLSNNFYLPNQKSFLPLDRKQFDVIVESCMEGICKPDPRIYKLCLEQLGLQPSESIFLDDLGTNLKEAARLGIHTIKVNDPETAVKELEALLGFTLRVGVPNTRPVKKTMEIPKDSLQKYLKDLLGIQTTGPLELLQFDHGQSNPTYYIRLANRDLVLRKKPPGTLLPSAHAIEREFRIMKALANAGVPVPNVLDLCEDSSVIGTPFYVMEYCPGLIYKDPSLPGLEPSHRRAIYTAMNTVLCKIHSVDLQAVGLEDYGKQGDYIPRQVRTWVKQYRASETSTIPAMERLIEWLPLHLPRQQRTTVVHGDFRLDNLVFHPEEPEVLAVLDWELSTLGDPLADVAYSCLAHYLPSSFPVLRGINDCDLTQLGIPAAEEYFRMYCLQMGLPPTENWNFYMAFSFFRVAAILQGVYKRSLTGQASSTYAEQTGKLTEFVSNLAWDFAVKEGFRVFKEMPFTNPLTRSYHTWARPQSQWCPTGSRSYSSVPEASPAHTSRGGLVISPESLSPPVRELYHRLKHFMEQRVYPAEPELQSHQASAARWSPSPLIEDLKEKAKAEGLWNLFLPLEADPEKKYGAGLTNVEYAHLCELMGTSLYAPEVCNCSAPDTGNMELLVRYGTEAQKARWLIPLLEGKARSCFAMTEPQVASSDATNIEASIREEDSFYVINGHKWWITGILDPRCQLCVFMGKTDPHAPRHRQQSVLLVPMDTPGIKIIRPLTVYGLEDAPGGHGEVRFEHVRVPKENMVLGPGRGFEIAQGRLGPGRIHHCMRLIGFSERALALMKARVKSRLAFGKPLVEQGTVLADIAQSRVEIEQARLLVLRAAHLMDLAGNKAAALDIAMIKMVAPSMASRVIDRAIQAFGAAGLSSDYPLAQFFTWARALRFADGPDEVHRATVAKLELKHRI

[3] = molecular target: T2, ATP-dependent RNA helicase DDX42 (Homo sapiens, UniProt Q86XP3)
T2 sequence (Q86XP3 whole entry): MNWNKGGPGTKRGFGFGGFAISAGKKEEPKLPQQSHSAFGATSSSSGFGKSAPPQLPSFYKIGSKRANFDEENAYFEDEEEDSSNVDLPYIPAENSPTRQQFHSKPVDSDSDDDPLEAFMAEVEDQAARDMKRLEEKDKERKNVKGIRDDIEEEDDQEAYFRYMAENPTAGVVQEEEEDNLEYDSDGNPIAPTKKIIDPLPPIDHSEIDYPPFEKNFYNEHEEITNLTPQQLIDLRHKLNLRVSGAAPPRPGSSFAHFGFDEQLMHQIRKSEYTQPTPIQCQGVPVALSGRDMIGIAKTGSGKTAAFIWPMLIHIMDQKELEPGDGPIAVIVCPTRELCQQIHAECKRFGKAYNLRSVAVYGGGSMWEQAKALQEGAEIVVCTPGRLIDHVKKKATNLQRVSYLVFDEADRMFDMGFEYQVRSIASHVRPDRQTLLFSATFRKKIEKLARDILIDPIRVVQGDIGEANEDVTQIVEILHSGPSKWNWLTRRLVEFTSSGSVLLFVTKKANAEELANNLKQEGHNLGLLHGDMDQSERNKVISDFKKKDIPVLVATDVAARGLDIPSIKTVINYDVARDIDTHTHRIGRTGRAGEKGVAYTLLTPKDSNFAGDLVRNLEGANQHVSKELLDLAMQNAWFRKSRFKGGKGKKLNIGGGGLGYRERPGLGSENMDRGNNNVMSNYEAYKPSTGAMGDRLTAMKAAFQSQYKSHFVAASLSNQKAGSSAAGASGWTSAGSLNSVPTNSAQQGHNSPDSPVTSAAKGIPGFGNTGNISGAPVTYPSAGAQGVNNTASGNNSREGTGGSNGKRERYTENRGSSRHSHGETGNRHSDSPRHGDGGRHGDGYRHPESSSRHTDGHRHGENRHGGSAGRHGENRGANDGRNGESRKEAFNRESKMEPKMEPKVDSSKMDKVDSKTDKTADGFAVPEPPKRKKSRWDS

[4] = molecular target: Proto-oncogene tyrosine-protein kinase Src (Homo sapiens, UniProt P12931)
Note: in the data inactive means no Kd found up to 30 µM.

Sequence of Tyrosine-protein kinase Yes (P07947 whole entry): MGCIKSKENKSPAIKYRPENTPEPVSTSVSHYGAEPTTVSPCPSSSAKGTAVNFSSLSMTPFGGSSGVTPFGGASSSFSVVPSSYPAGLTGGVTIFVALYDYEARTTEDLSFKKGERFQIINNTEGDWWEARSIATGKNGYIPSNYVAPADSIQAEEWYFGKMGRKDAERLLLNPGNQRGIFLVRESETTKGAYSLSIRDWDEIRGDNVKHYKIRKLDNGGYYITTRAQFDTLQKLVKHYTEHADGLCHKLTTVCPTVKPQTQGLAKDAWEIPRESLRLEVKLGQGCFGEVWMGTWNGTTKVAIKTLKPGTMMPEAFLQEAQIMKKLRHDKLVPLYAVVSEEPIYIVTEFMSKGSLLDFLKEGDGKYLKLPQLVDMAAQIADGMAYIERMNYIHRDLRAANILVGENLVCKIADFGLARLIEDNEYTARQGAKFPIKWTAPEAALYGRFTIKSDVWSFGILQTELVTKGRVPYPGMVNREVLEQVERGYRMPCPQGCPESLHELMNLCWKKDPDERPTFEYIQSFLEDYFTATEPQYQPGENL
Sequence of Proto-oncogene tyrosine-protein kinase Src (P12931 2-536 limits assumed): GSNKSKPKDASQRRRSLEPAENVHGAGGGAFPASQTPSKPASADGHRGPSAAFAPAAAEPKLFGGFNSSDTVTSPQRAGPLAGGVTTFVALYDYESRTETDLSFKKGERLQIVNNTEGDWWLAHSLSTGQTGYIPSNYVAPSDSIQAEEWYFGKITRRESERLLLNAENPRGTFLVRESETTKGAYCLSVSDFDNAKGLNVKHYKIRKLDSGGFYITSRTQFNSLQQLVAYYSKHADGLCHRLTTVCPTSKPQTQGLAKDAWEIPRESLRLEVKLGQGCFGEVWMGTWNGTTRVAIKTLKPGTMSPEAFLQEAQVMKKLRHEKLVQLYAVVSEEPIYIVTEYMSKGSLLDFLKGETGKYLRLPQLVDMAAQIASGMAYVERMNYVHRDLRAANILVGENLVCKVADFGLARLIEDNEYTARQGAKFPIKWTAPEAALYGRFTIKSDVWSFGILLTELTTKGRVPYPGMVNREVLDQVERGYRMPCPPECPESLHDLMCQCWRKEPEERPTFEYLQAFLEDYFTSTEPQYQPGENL

Kd [1] | Kd [2] | Kd [3] | Kd [4] | Compound
> 30 µM (inactive) | > 30 µM (inactive) | > 30 µM (inactive) | > 30 µM (inactive) | O=C1NC(=O)[C@@H](c2cn3c4c(cccc24)CCC3)[C@@H]1c1c[nH]c2ccccc12 [TIVANTINIB]
> 30 µM (inactive) | > 30 µM (inactive) | > 30 µM (inactive) | > 30 µM (inactive) | C[C@@H](NC(=O)c1ncnc(N)c1Cl)c1ncc(C(=O)Nc2cc(C(F)(F)F)c(Cl)cn2)s1 [TOVORAFENIB]

Compound | Kd [1] | Kd [2] | Kd [3] | Kd [4]
Cc1cc(Nc2ncnc3ccc(NC4=NC(C)(C)CO4)cc23)ccc1Oc1ccn2ncnc2c1 [TUCATINIB] | > 30 µM (inactive) | > 30 µM (inactive) | > 30 µM (inactive) | > 30 µM (inactive)
